The results in this text go back to ChEMBL document CHEMBL3758091, “Identification of N-(6-mercaptohexyl)-3-(4-pyridyl)-1H-pyrazole-5-carboxamide and its disulfide prodrug as potent histone deacetylase inhibitors with in vitro and in vivo anti-tumor efficacy” (Eur J Med Chem, 2016).

The test system of data set [1] is Mus musculus. In words: Toxicity in athymic nude mouse xenografted with human HCT116 cells assessed as mortality at 40 mg/kg, ip qd administered for 14 days measured every other day during compound dosing. Particulars: in vivo, 336 h. In kind it is organism-based, HCT-116.
Data set [2] has as its system Mus musculus. In words: Toxicity in athymic nude mouse xenografted with human HCT116 cells assessed as reduction in body weight at 40 mg/kg, ip qd administered for 14 days measured every other day during compound dosing. In kind it is organism-based, HCT-116. The conditions noted are these: in vivo, 336 h. In general terms: Xenograft models place foreign cells or tissue in a host animal.

Data set [3] concerns HT-29. The data set can be described thus: Growth inhibition of human HT-29 cells after 96 hrs by MTT assay. In kind it is functional. In general terms: Tetrazolium dyes change colour on reduction, which living cells bring about.
Data set [4] is described as follows: cells. In kind it is functional. Particulars: Homo sapiens, HCT-116, 96 h.
Description: Growth inhibition of human HCT116 cells after 96 hrs by MTT assay
A short description of data set [5]: Cytotoxicity against HEK293 cells assessed as growth inhibition after 96 hrs by MTT assay. The conditions noted are these: human.
For data set [6], the system named is MCF7. The data set can be described thus: cells. In kind it is functional. The conditions noted are these: Homo sapiens, MCF7, 96 h.
Description: Growth inhibition of human MCF7 cells after 96 hrs by MTT assay
Data set [7] deals with MDA-MB-231. In words: cells. In kind it is functional. Particulars: Homo sapiens, MDA-MB-231, 96 h.
Description: Growth inhibition of human MDA-MB-231 cells after 96 hrs by MTT assay
Data set [8] has as its target Histone deacetylase 1 (Homo sapiens, UniProt Q13547). The data set can be described thus: Inhibition of HDAC1 in human HCT116 cells assessed as increase in acetylated histone H3 level after 24 hrs by Western blot analysis. The conditions noted are these: HCT-116. In kind it is cell-based.
For data set [9], the system named is A549. The data set can be described thus: cells. The conditions noted are these: Homo sapiens, A549, 96 h. In kind it is functional.
Description: Growth inhibition of human A549 cells after 96 hrs by MTT assay
The nature of data set [10]: Antitumor activity against human HCT116 cells xenografted in athymic nude mouse assessed as tumor growth inhibition at 40 mg/kg, ip qd administered for 14 days measured every other day during compound dosing. In kind it is functional. Particulars: HCT-116, ip, 336 h, read-out: TGI.
Data set [11] deals with HCT-116. The data set can be described thus: Antitumor activity against human HCT116 cells xenografted in ip dosed athymic nude mouse assessed as tumor growth inhibition qd administered for 14 days measured every other day during compound dosing. The class given is functional, organism-based.
The subject of data set [12] is Mus musculus. In words: Toxicity in athymic nude mouse xenografted with human HCT116 cells assessed as reduction in body weight at 40 to 80 mg/kg, ip qd administered for 14 days measured every other day during compound dosing. In kind it is organism-based, HCT-116. The conditions noted are these: in vivo, 336 h.
Data set [13] in a line: Antitumor activity against human HCT116 cells xenografted in athymic nude mouse assessed as tumor growth inhibition at 80 mg/kg, ip qd administered for 14 days measured every other day during compound dosing. The conditions noted are these: HCT-116, ip, 336 h, read-out: TGI. The class given is functional.
The nature of data set [14]: cells. The class given is functional. The conditions noted are these: Homo sapiens, ASPC1, 96 h.
Description: Growth inhibition of human Aspc-1 cells after 96 hrs by MTT assay
A short description of data set [15]: cells. In kind it is functional. Particulars: Homo sapiens, PC-3, 96 h.
Description: Growth inhibition of human PC3 cells after 96 hrs by MTT assay
Data set [16] concerns the target T1, Protein deacetylase HDAC6 (Homo sapiens) (UniProt Q9UBN7).
T1 sequence (whole entry): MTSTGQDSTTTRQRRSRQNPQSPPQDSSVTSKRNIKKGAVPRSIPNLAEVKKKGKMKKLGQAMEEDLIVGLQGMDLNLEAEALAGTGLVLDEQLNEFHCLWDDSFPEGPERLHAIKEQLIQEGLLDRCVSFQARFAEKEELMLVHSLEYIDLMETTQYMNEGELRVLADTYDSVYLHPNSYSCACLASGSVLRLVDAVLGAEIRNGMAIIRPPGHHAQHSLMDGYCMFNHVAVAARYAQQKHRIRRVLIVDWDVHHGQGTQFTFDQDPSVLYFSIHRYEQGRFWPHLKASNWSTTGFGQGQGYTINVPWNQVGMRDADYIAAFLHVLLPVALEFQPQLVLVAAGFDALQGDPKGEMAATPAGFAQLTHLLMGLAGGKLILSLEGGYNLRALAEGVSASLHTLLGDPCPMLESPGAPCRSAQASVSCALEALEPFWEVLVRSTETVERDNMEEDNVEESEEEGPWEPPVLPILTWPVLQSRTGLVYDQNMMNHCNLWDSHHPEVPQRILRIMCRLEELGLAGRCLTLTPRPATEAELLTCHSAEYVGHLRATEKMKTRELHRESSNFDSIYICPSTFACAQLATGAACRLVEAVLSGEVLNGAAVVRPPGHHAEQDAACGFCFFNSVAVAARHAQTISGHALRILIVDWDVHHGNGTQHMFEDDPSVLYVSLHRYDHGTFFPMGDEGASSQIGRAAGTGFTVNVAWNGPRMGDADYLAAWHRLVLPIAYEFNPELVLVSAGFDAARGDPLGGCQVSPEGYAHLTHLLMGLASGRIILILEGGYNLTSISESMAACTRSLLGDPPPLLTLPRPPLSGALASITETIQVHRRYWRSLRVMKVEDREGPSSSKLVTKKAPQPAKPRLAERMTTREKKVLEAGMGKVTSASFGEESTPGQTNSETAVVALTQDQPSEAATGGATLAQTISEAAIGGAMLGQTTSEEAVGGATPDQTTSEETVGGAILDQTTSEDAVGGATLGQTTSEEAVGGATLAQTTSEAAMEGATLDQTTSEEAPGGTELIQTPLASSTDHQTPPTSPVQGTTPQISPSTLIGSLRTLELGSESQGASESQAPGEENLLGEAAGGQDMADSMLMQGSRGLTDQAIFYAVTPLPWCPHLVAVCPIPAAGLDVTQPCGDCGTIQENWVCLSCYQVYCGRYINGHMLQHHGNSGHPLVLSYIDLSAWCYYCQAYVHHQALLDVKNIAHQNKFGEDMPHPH
The data set can be described thus: Inhibition of HDAC6 in human HCT116 cells assessed as increase in acetylated tubulin level after 24 hrs by Western blot analysis. The class given is cell-based. Particulars: HCT-116. In general terms: In western blotting, separated proteins are transferred to a membrane and probed.

Data set [17] relates to Mus musculus. In words: Toxicity in athymic nude mouse xenografted with human HCT116 cells assessed as mortality at 40 to 80 mg/kg, ip qd administered for 14 days measured every other day during compound dosing. The class given is organism-based, HCT-116. Particulars: in vivo, 336 h.

Chain of Histone deacetylase 1 (Q13547 whole entry): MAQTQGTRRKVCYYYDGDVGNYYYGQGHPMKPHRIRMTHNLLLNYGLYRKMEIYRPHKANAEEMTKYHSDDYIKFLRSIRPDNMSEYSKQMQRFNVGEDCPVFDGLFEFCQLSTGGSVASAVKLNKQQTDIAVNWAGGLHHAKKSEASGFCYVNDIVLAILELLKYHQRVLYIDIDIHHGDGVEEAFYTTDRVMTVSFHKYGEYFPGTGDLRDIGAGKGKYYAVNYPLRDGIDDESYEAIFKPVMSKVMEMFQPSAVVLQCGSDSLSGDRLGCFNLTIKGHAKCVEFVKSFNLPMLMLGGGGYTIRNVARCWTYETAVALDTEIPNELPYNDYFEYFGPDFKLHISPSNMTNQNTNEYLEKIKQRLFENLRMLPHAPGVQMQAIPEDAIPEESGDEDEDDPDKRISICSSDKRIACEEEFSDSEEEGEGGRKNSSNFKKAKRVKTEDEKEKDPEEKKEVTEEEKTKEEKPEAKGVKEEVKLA

Turning to `O=C(CCCCCCC(=O)Nc1ccccc1)NO` [VORINOSTAT], the Activity result in data set [1] and in data set [2] was “Non-toxic” in each case. This compound had a GI50 in data set [3] of 2.88 µM.

As for `O=C(NCCCCCCSSCCCCCCNC(=O)c1cc(-c2ccncc2)n[nH]1)c1cc(-c2ccncc2)n[nH]1`, the concentration for 50% growth inhibition (GI50) in data set [4] was 8.93 µM; in data set [6], 7.15 µM; in [7] it was 27.3 µM; in [9] it was 6.07 µM; in [3] (Homo sapiens, HT-29, 96 h) it was 6.92 µM; in data set [14], 25.3 µM. The compound further registered a GI50 in data set [15] of 4.74 µM. Besides, in data set [5], the GI50 at 96 h turned out to be 14.8 µM. The inhibition entry in [8], in data set [11] and in data set [16] was “Dose-dependent effect” in each case. The inhibition in vivo at 40 mg/kg in data set [10] was 27%. Moreover, the Activity entry in data set [12] and in [17] was “Non-toxic” throughout. In addition, the inhibition in vivo at 80 mg/kg in data set [13] came out at 48%.

By GI50 is commonly meant the concentration giving 50% growth inhibition.
